Experimental data taken from patent US10131652B2, “Pyrimidinyloxy benzene derivatives as herbicides” (E. I. DU PONT DE NEMOURS AND COMPANY, priority 2014, dated 2018).

Tests used:
Type in all cases: in vivo
[1] = test system: yellow nutsedge (Cyperus esculentus); assay: Test D pre-/postemergence plant response
Outline: (§1)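 Visual injury scoring (0–100) at 13 to 15 days in greenhouse. Preemergence sprays on seeded loam/sand; postemergence sprays on 1–4 leaf plants.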

[2] = test system: johnsongrass (Sorghum halepense); assay: Test D pre-/postemergence plant response
Outline: as §1

soybean (Glycine max) = assay: Test D pre-/postemergence plant response
Outline: as §1

[3] = test system: winter wheat (Triticum aestivum); assay: Test D pre-/postemergence plant response
Outline: as §1

[4] = test system: oilseed rape (Brassica napus); assay: Test D pre-/postemergence plant response
Outline: as §1

[5] = test system: velvetleaf (Abutilon theophrasti); assay: Test D pre-/postemergence plant response
Outline: as §1

[6] = test system: large (Lg) crabgrass (Digitaria sanguinalis); assay: Test D pre-/postemergence plant response
Outline: as §1

wild oat (Avena fatua) = assay: Test D postemergence plant response
Outline: (§2)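 Postemergence spray on plants 2–18 cm tall (1- to 4-leaf stage), grown in pots of peat/vermiculite medium. Plants were kept in a greenhouse for 13–15 days, then visually rated against untreated controls on a 0 (no effect) to 100 (complete control) scale.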

kochia (Kochia scoparia) = assay: Test D postemergence plant response; conditions: for Kochia plant response rating: scale 0 to 100 (0 no effect, 100 complete control); for Plant response rating, Kochia: scale 0 to 100, 0 no effect, 100 complete control
Outline: as §2

[7] = test system: chickweed (common chickweed, Stellaria media); assay: Test D postemergence plant response; conditions: for Chickweed plant response rating: scale 0 to 100 (0 no effect, 100 complete control); for Plant response rating, Chickweed: scale 0 to 100, 0 no effect, 100 complete control
Outline: as §2

[8] = test system: ducksalad (Heteranthera limosa); assay: Test C flooded paddy test plant response; conditions: Flood, 250 g ai/ha; scale of 0 to 100 where 0 is no effect and 100 is complete control; 13 to 15 days
Outline: (§3)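 Water-applied treatment: compounds go directly into floodwater standing 3 cm over the soil of pots holding 2-leaf-stage plants. Depth is kept constant; plants stay in a greenhouse 13 to 15 days before visual comparison with controls on a 0–100 scale.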

[9] = test system: barnyardgrass (Echinochloa crus-galli); assay: Test C flooded paddy test plant response; conditions: Flood, 250 g ai/ha; scale of 0 to 100 where 0 is no effect and 100 is complete control; 13 to 15 days
Outline: as §3

[10] = test system: small-flower umbrella sedge (Cyperus difformis); assay: Test C flooded paddy test plant response; conditions: Flood, 250 g ai/ha; scale of 0 to 100 where 0 is no effect and 100 is complete control; 13 to 15 days
Outline: as §3

rice (Oryza sativa) = assay: Test C flooded paddy test plant response; conditions: Flood, 250 g ai/ha; scale of 0 to 100 where 0 is no effect and 100 is complete control; 13 to 15 days
Outline: as §3

[11] = Postemergence, 31 g ai/ha, scale 0 to 100 (0 no effect, 100 complete control)
[12] = Postemergence, 62 g ai/ha, scale 0 to 100, 0 no effect, 100 complete control
[13] = Postemergence, 125 g ai/ha, scale 0 to 100, 0 no effect, 100 complete control
[14] = Preemergence, 16 g ai/ha, scale 0 to 100 (0 no effect, 100 complete control)
[15] = Preemergence, 31 g ai/ha, scale 0 to 100 (0 no effect, 100 complete control)
[16] = Preemergence, 62 g ai/ha, scale 0 to 100 (0 no effect, 100 complete control)
[17] = 31 g ai/ha, scale 0 to 100 (0 no effect, 100 complete control)
[18] = 62 g ai/ha, scale 0 to 100, 0 no effect, 100 complete control
[19] = 125 g ai/ha, scale 0 to 100, 0 no effect, 100 complete control
[20] = Postemergence, 16 g ai/ha, scale 0 to 100 (0 no effect, 100 complete control)

Clc1cnc(Oc2ccccc2-c2cc(C3CC3)on2)nc1 [Compound 183]
Plant response rating (scale 0 to 100), Nutsedge, Yellow ([1]; Postemergence, 16 g ai/ha): 5 | Nutsedge, Yellow plant response rating [1, 11]: 5 | Nutsedge, Yellow plant response rating [1, 12]: 5 | Plant response rating, Nutsedge, Yellow [1, 13]: 5 | Plant response rating (scale 0 to 100), Nutsedge, Yellow ([1]; Preemergence, 125 g ai/ha): 5 | Plant response rating, Nutsedge, Yellow [1, 14]: 0 | Plant response rating, Nutsedge, Yellow [1, 15]: 0 | Plant response rating, Nutsedge, Yellow [1, 16]: 0 | Plant response rating (scale 0 to 100), Johnsongrass ([2]; Postemergence, 16 g ai/ha): 0 | Johnsongrass plant response rating [2, 11]: 5 | Plant response rating, Johnsongrass [2, 12]: 5 | Plant response rating, Johnsongrass [2, 13]: 10 | Plant response rating (scale 0 to 100), Johnsongrass ([2]; Preemergence, 125 g ai/ha): 45 | Plant response rating, Johnsongrass [2, 14]: 0 | Plant response rating, Johnsongrass [2, 15]: 5 | Plant response rating, Johnsongrass [2, 16]: 20 | Plant response rating (scale 0 to 100), Soybean (soybean (Glycine max); Postemergence, 16 g ai/ha): 65 | Soybean plant response rating (soybean (Glycine max); [11]): 55 | Soybean plant response rating (soybean (Glycine max); [12]): 75 | Plant response rating, Soybean (soybean (Glycine max); [13]): 90 | Plant response rating (scale 0 to 100), Soybean (soybean (Glycine max); Preemergence, 125 g ai/ha): 80 | Plant response rating, Soybean (soybean (Glycine max); [14]): 0 | Plant response rating, Soybean (soybean (Glycine max); [15]): 10 | Plant response rating, Soybean (soybean (Glycine max); [16]): 35 | Plant response rating (scale 0 to 100), Wheat ([3]; Postemergence, 16 g ai/ha): 5 | Wheat plant response rating [3, 11]: 20 | Wheat plant response rating [3, 12]: 30 | Plant response rating, Wheat [3, 13]: 30 | Plant response rating (scale 0 to 100), Wheat ([3]; Preemergence, 125 g ai/ha): 0 | Plant response rating, Wheat [3, 14]: 0 | Plant response rating, Wheat [3, 15]: 0 | Plant response rating, Wheat [3, 16]: 0 | Plant response rating (scale 0 to 100), Oilseed Rape ([4]; Postemergence, 16 g ai/ha): 5 | Oilseed Rape plant response rating [4, 11]: 85 | Oilseed Rape plant response rating [4, 12]: 100 | Plant response rating, Oilseed Rape [4, 13]: 100 | Plant response rating (scale 0 to 100), Oilseed Rape ([4]; Preemergence, 125 g ai/ha): 100 | Plant response rating, Oilseed Rape [4, 14]: 50 | Plant response rating, Oilseed Rape [4, 15]: 100 | Plant response rating, Oilseed Rape [4, 16]: 100 | Plant response rating (scale 0 to 100), Velvetleaf ([5]; Postemergence, 16 g ai/ha): 30 | Velvetleaf plant response rating [5, 11]: 55 | Velvetleaf plant response rating [5, 12]: 55 | Plant response rating, Velvetleaf [5, 13]: 55 | Plant response rating (scale 0 to 100), Velvetleaf ([5]; Preemergence, 125 g ai/ha): 100 | Plant response rating, Velvetleaf [5, 14]: 40 | Plant response rating, Velvetleaf [5, 15]: 80 | Plant response rating, Velvetleaf [5, 16]: 90 | Plant response rating (scale 0 to 100), Crabgrass, Large ([6]; Postemergence, 16 g ai/ha): 5 | Crabgrass, Large plant response rating [6, 11]: 5 | Plant response rating, Crabgrass, Large [6, 12]: 5 | Plant response rating, Crabgrass, Large [6, 13]: 10 | Plant response rating (scale 0 to 100), Crabgrass, Large ([6]; Preemergence, 125 g ai/ha): 100 | Plant response rating, Crabgrass, Large [6, 14]: 5 | Plant response rating, Crabgrass, Large [6, 15]: 70 | Plant response rating, Crabgrass, Large [6, 16]: 98 | Plant response rating (scale 0 to 100), Oat, Wild (wild oat (Avena fatua); 16 g ai/ha): 0 | Oat, Wild plant response rating (wild oat (Avena fatua); [17]): 5 | Oat, Wild plant response rating (wild oat (Avena fatua); [18]): 10 | Plant response rating, Oat, Wild (wild oat (Avena fatua); [19]): 25 | Plant response rating (scale 0 to 100), Kochia (kochia (Kochia scoparia); 16 g ai/ha): 90 | Kochia plant response rating (kochia (Kochia scoparia); 31 g ai/ha): 95 | Plant response rating, Kochia (kochia (Kochia scoparia); 62 g ai/ha): 100 | Plant response rating, Kochia (kochia (Kochia scoparia); 125 g ai/ha): 100 | Plant response rating (scale 0 to 100), Chickweed ([7]; 16 g ai/ha): 30 | Chickweed plant response rating ([7]; 31 g ai/ha): 60 | Plant response rating, Chickweed ([7]; 62 g ai/ha): 65 | Plant response rating, Chickweed ([7]; 125 g ai/ha): 70 | Ducksalad plant response rating [8]: 85 | Barnyardgrass plant response rating [9]: 0 | Sedge, Umbrella plant response rating [10]: 75 | Rice plant response rating (rice (Oryza sativa)): 0

Fc1cccc(Oc2ncc(Br)cn2)c1-c1cc(C(F)F)on1 [Compound 118]
Nutsedge, Yellow plant response rating [1, 20]: 5 | Nutsedge, Yellow plant response rating [1, 11]: 5 | Plant response rating, Nutsedge, Yellow [1, 12]: 10 | Plant response rating, Nutsedge, Yellow [1, 13]: 10 | Plant response rating (scale 0 to 100), Nutsedge, Yellow ([1]; Preemergence, 125 g ai/ha): 65 | Plant response rating, Nutsedge, Yellow [1, 14]: 0 | Plant response rating, Nutsedge, Yellow [1, 15]: 0 | Plant response rating, Nutsedge, Yellow [1, 16]: 15 | Johnsongrass plant response rating [2, 20]: 5 | Johnsongrass plant response rating [2, 11]: 5 | Plant response rating, Johnsongrass [2, 12]: 10 | Plant response rating, Johnsongrass [2, 13]: 45 | Plant response rating (scale 0 to 100), Johnsongrass ([2]; Preemergence, 125 g ai/ha): 100 | Plant response rating, Johnsongrass [2, 14]: 10 | Plant response rating, Johnsongrass [2, 15]: 70 | Plant response rating, Johnsongrass [2, 16]: 85 | Soybean plant response rating (soybean (Glycine max); [20]): 75 | Soybean plant response rating (soybean (Glycine max); [11]): 60 | Plant response rating, Soybean (soybean (Glycine max); [12]): 60 | Plant response rating, Soybean (soybean (Glycine max); [13]): 90 | Plant response rating (scale 0 to 100), Soybean (soybean (Glycine max); Preemergence, 125 g ai/ha): 95 | Plant response rating, Soybean (soybean (Glycine max); [14]): 80 | Plant response rating, Soybean (soybean (Glycine max); [15]): 75 | Plant response rating, Soybean (soybean (Glycine max); [16]): 80 | Wheat plant response rating [3, 20]: 0 | Wheat plant response rating [3, 11]: 0 | Plant response rating, Wheat [3, 12]: 0 | Plant response rating, Wheat [3, 13]: 5 | Plant response rating (scale 0 to 100), Wheat ([3]; Preemergence, 125 g ai/ha): 5 | Plant response rating, Wheat [3, 14]: 0 | Plant response rating, Wheat [3, 15]: 0 | Plant response rating, Wheat [3, 16]: 0 | Oilseed Rape plant response rating [4, 20]: 5 | Oilseed Rape plant response rating [4, 11]: 30 | Plant response rating, Oilseed Rape [4, 12]: 60 | Plant response rating, Oilseed Rape [4, 13]: 95 | Plant response rating (scale 0 to 100), Oilseed Rape ([4]; Preemergence, 125 g ai/ha): 100 | Plant response rating, Oilseed Rape [4, 14]: 85 | Plant response rating, Oilseed Rape [4, 15]: 98 | Plant response rating, Oilseed Rape [4, 16]: 100 | Velvetleaf plant response rating [5, 20]: 65 | Velvetleaf plant response rating [5, 11]: 75 | Plant response rating, Velvetleaf [5, 12]: 70 | Plant response rating, Velvetleaf [5, 13]: 85 | Plant response rating (scale 0 to 100), Velvetleaf ([5]; Preemergence, 125 g ai/ha): 100 | Plant response rating, Velvetleaf [5, 14]: 80 | Plant response rating, Velvetleaf [5, 15]: 70 | Plant response rating, Velvetleaf [5, 16]: 100 | Crabgrass, Large plant response rating [6, 20]: 10 | Crabgrass, Large plant response rating [6, 11]: 10 | Plant response rating, Crabgrass, Large [6, 12]: 15 | Plant response rating, Crabgrass, Large [6, 13]: 20 | Plant response rating (scale 0 to 100), Crabgrass, Large ([6]; Preemergence, 125 g ai/ha): 100 | Plant response rating, Crabgrass, Large [6, 14]: 100 | Plant response rating, Crabgrass, Large [6, 15]: 100 | Plant response rating, Crabgrass, Large [6, 16]: 100 | Oat, Wild plant response rating (wild oat (Avena fatua); 16 g ai/ha, scale 0 to 100 (0 no effect, 100 complete control)): 5 | Oat, Wild plant response rating (wild oat (Avena fatua); [17]): 10 | Plant response rating, Oat, Wild (wild oat (Avena fatua); [18]): 15 | Plant response rating, Oat, Wild (wild oat (Avena fatua); [19]): 50 | Kochia plant response rating (kochia (Kochia scoparia); 16 g ai/ha): 95 | Kochia plant response rating (kochia (Kochia scoparia); 31 g ai/ha): 95 | Plant response rating, Kochia (kochia (Kochia scoparia); 62 g ai/ha): 95 | Plant response rating, Kochia (kochia (Kochia scoparia); 125 g ai/ha): 100 | Chickweed plant response rating ([7]; 16 g ai/ha): 75 | Chickweed plant response rating ([7]; 31 g ai/ha): 70 | Plant response rating, Chickweed ([7]; 62 g ai/ha): 90 | Plant response rating, Chickweed ([7]; 125 g ai/ha): 98 | Ducksalad plant response rating [8]: 100 | Barnyardgrass plant response rating [9]: 50 | Sedge, Umbrella plant response rating [10]: 100 | Rice plant response rating (rice (Oryza sativa)): 45
